Assay [1] has as its system bananas. Nature of the assay: Time of protection of bananas against ethylene. Format: in vivo, Musa paradisiaca L. How it is done: Untreated mature green bananas (Musa paradisiaca L) from Costa Rica which were ready for market were obtained from the local Farmers Market and were kept at 14.5° C. until use. Bananas were used within 24 hours of arrival. Experiments were conducted at approximately 22-23° C. No damaged fruit were used in the experiments. Bananas were treated to an amount of compound believed to saturate the receptor sites (10 times the minimum amount for protection). The bananas were exposed for 24 hours then vented. They were kept on a laboratory bench and each day a sample was exposed to ethylene. The day the bananas were treated with ethylene and the day the bananas turned yellow and became soft were recorded. Generally, this observation occurred about 3 days after the ethylene treatment day. The treatment day the bananas first ripened was considered to be the time of protection.

The subject of a further assay is banana peel. Nature of the assay: Protection of chlorophyll in banana peel by compound applied as salt (swab) or gas, then ethylene. The format is in vivo, Musa paradisiaca L. How it is done:
Untreated mature green bananas (Musa paradisiaca L) from Costa Rica which were ready for market were obtained from the local Farmers Market and were kept at 14.5° C. until use. Bananas were used within 24 hours of arrival. Experiments were conducted at approximately 22-23° C. No damaged fruit were used in the experiments. […] The jars were then vented and ethylene was injected and allowed to stand for a minimum of 15 hours and then allowed to stand at 23° C. until ethylene responses developed. When the effect of the respective salts of the cyclopropenes were assayed, the salt was mixed with the desired amount of water containing Tween 20 as a wetting agent and the acid. Usually 200 μl of water, 20 μl of Tween 20 and 100 μl of 0.1 M acid and the compound dissolved in ether were used. These salts were applied to the banana. The peels were swabbed to spread the mixture and increase the exposed surface area. The bananas were placed in an unsealed 3-liter jar and allowed to stand 24 hours. In the case of the carbonate salt, the compound was exposed to carbon dioxide in water long enough for the salt to form. In this case, the carbonate salt was formed by mixing the compound dissolved in water with CO2. The concentration of CO2 in water at 1 atmosphere and 25° C. is reported to be 0.0338 M (Daniels and Alberty 1955) (See Daniels, F, et al., Physical Chemistry, John Wiley and Sons New York, 200 (1955). […] (See Cotton, et al., Advanced Inorganic Chemistry John Wiley and Sons. New York, 152 (1999). At the end of 24 hours, ethylene was injected and the jars were sealed. After 15 hours exposure, the bananas were removed and observed for several days for the effect of ethylene. An untreated check banana and a similar untreated banana treated with ethylene only were included in each experiment for comparison. For gaseous phase treatment, the compound is applied to bananas by pipetting solution onto filter paper. Filter paper is used to increase surface area in a 3 L jar. The jar is sealed for 24 hours to give enough time to diffuse through plant tissue to the ethylene binding sites. 333 ul/L of ethylene gas is added to the jars. The jars are then resealed for 15 hours. This allows for maximal exposure to ethylene to measure effectiveness of the compounds. Firmness was recorded over a number of days. Disappearance of chlorophyll was determined by extracting chlorophyll from banana peels. Absorbance was measured in a spectrometer. For aqueous phase (salts) treatment, compounds were alternatively tested by mixing the solutions in acid and a detergent. The detergent, Tween 20, was used as a wetting agent. Solutions were then applied at various concentrations to the banana with a cotton swab. Bananas were then sealed in a jar and treated in the same manner as with the gas compound procedures described above. Chlorophyll was determined by the method of Arnon (Arnon, D I (1949) Copper content in isolated chloroplasts. Polyphenoloxidase in Beta vulgaris. Plant Physiology 24:1-15) or by using a reflective chlorophyll meter (Field Scout CM 1000 Spectronic Technologies Inc.). To extract chlorophyll, a measured area of peel was cut from representative areas of the peel and placed in boiling water for 3 minutes. The samples were then removed and blended with acetone. After standing overnight in the dark, they were filtered then concentrated in a hood and chlorophyll determined by the method of Arnon (1949) according to the procedures outlined by Holden (1965). Banana peel samples were cut and mixed with acetone to extract chlorophyll. Samples were made in an ether solution and absorbance measured at 663 nm.

The test system of another assay is Petunia hybridia. Nature of the assay: Protection of petunia flowers against ethylene. The format is in vivo. The settings on record: 100 nl, gas or carbonate salt form, ethylene 24 hours, at 5 days, FIG. 8. How it is done:
FIG. 8. Protection of flowers (Petunia hybridia) by N,N-dipropyl(1-cyclopropenylmethyl)amine (100 nl) as a gas or as the carbonate salt. Treatment included check (control), ethylene, gas form, salt form of N,N-dipropyl(1-cyclopropenylmethyl)amine, from left to right. All except check were subjected to ethylene for 24 hours.
In experiments to study effects of the compounds described herein on the ethylene response in flowering plants, the petunia (Petunia hybridia), a well known ethylene sensitive flower, and the dandelion (Krigia dandelion) were used in the experiments.
FIGS. 7 and 8 present the results of using 100 nl N,N-dipropyl(1-cyclopropenylmethyl)amine on dandelions and petunias, respectively. The Krigia dandelion is commonly known as a weed that can be found along roads during particular times of the year such as spring and summer. It is of interest because ethylene can cause the plant to become dormant and, as a defense mechanism, the plant can become dormant when there is drought. […] The petunia is a well-known ethylene sensitive flower.

In assay [2] the test system is bananas. Nature of the assay: Minimum amount of cyclopropene as a gas required to protect bananas from ethylene. The format is in vivo, Musa paradisiaca L. How it is done:
Untreated mature green bananas (Musa paradisiaca L) from Costa Rica which were ready for market were obtained from the local Farmers Market and were kept at 14.5° C. until use. Bananas were used within 24 hours of arrival. Experiments were conducted at approximately 22-23° C. No damaged fruit were used in the experiments. […] The jars were then vented and ethylene was injected and allowed to stand for a minimum of 15 hours and then allowed to stand at 23° C. until ethylene responses developed. For gaseous phase treatment, the compound is applied to bananas by pipetting solution onto filter paper. Filter paper is used to increase surface area in a 3 L jar. The jar is sealed for 24 hours to give enough time to diffuse through plant tissue to the ethylene binding sites. 333 ul/L of ethylene gas is added to the jars. The jars are then resealed for 15 hours. This allows for maximal exposure to ethylene to measure effectiveness of the compounds. Firmness was recorded over a number of days. Disappearance of chlorophyll was determined by extracting chlorophyll from banana peels. Absorbance was measured in a spectrometer. The minimum amount of cyclopropene necessary to protect bananas from ethylene was determined after the bananas had been exposed to the compound for 24 hours. Following this time, the fruits were vented for 10 minutes and then exposed to 333 ? l^-I of ethylene gas treatment. This has been the procedure for most other studies involving cyclopropene compounds and bananas. This time was used so that a reasonable comparison could be made with previous work ([…]. et al. 1996 a; 1996b; 1999; 2001; 2003). (See […]., et al., Effect of 1-methylcyclopropene, and methylenecyclopropene on ethylene binding and ethylene action in cut carnations, Plant Growth Reg., 18, 79-86, (1996a); […]., et al., The effect of chemical structure on the antagonism by cyclopropenes of ethylene responses in banana, Plant Growth Reg., 33, 107-110 (2001); […]., et al., 1-Substituted cyclopropenes: Effective blocking agents for ethylene action in plants, Plant Growth Reg. 40, 221-228 (2003)).

Where two headings read alike, the source gives them in different places.

Turning to `CCCN(CCC)CC1=CC1` [N,N--Dipropyl (1-Cyclopropenylmethyl)amine], the protection time in the assay on bananas [1] was 33 days; in the assay with bananas [1] (24 hour exposure at 10 times the minimum amount, daily ethylene challenge), 33 days. In addition, in the assay with banana peel (FIG. 4, gaseous phase, 10 and 15 μL, after seven days), the “ethylene response of bananas after gas exposure” value was “had already begun showing an ethylene response”. Also, the “Chlorophyll (% of control)” value in the assay with banana peel (acetic acid + 50 μl, 24 hours, ethylene (300 μl/l) 15 hours, 5 days after ethylene) is reported as 43 % of Control; in the assay with banana peel (acetic acid + 200 μl, 24 hours, ethylene (300 μl/l) 15 hours, 5 days after ethylene), 46 % of Control; in the assay with banana peel (applied as gas, ethylene 15 hours, readings at 5 days) it was 100 % of control; in the assay with banana peel (carbonic + 50 μl, 24 hours, ethylene (300 μl/l) 15 hours, 5 days after ethylene), 47 % of Control; with banana peel (carbonic acid + 200 μl, 24 hours, ethylene (300 μl/l) 15 hours, 5 days after ethylene), 48 % of Control; in the assay on banana peel (salt with 0.1 M acetic acid buffer (pH 4.75), swab to ½ banana, 24 hours, ethylene 15 hours, readings at 5 days) it was 33 % of control. Also, the “Chlorophyll (% of control)” value is reported as 31 % of control in the assay with banana peel (salt with 0.1 M acetic acid, swab to ½ banana, 24 hours, ethylene 15 hours, readings at 5 days); 30 % of control in the assay with banana peel (salt with 0.1 M formic acid, swab to ½ banana, 24 hours, ethylene 15 hours, readings at 5 days); 30 % of control in the assay with banana peel (salt with phosphoric acid (pH 1.5), swab to ½ banana, 24 hours, ethylene 15 hours, readings at 5 days). Moreover, the “effectiveness of the carbonate salt compared with other acids” value in the assay on banana peel (banana peel, Table 4) was “as effective as the other acids”. The “effect on petunia flowers exposed to ethylene” value in the assay on Petunia hybridia is “appears to withstand the ethylene response”. Also, the “minimum concentration required for protection of bananas” value in the assay on bananas [2] (24 hour exposure, compound as a gas) was determined as 30 nl l^−I. Besides, the “Minimum Concentration” value with bananas [2] (amount of compound as a gas that would protect bananas by a 24 hour exposure) worked out at 30 nl/l.

(Values after patent US8093430B2, “Methods of inhibiting ethylene responses in plants using cyclopropene amine compounds” (North Carolina State University, priority 2007, dated 2012).)
